Laboratory results published in ChEMBL document CHEMBL6096703 (J Med Chem, 2025).
Calls of active or inactive are those of the source. No cut-off for these calls is given here.

Legend:
MDA-MB-436 [1] = experiment: Induction of DNA damage in human MDA-MB-436 cells assessed as increase in tail intensity at 100 to 1000 nM incubated for 3 days by PI staining based fluorescence microscopic analysis; assay type: functional, cell-based; settings: dose 100-1000 nM, time 3.0 day
[2] = Half life in male Balb/c mouse at 1 mg/kg, po measured upto 96 hrs by LC-MS/MS analysis; assay type: ADME, organism-based; settings: in vivo, po, 1 mg/kg, 96 h
[3] = AUC(0 to t) in male Balb/c mouse at 1 mg/kg, po measured upto 96 hrs by LC-MS/MS analysis; assay type: ADME, organism-based; settings: in vivo, po, 1 mg/kg, 96 h
[4] = Sub-acute toxicity in Kunming mouse assessed as change LDH2 level at 30 to 100 mg/kg administered via gavage once every other day for 14 days; assay type: organism-based; settings: in vivo, po, 336 h, dose 30-100 mg/kg, time 14 day
[5] = Apparent volume of distribution in rat at 2.5 mg/kg, po measured upto 96 hrs by LC-MS/MS analysis; assay type: ADME, organism-based; settings: in vivo
[6] = Sub-acute toxicity in Kunming mouse assessed as change CREA2 level at 30 to 100 mg/kg administered via gavage once every other day for 14 days; assay type: organism-based; settings: in vivo, po, 336 h, dose 30-100 mg/kg, time 14 day
[7] = Cmax in male Balb/c mouse at 1 mg/kg, iv measured upto 96 hrs by LC-MS/MS analysis; assay type: ADME, organism-based; settings: in vivo
[8] = Apparent volume of distribution in rat at 2.5 mg/kg, iv measured upto 96 hrs by LC-MS/MS analysis; assay type: ADME, organism-based; settings: in vivo, read-out: Vz
[9] = biological target: Poly [ADP-ribose] polymerase 2 (Homo sapiens, UniProt Q9UGN5); experiment: Binding affinity to PARP2 (unknown origin) assessed as DNA trapping activity incubated for 1 hr by Envision 2105 plate reader analysis
[10] = Toxicity in female NOD/SCID mouse xenografted with human MDA-MB-436 cells assessed as change in body weight at 0.3 to 3 mg/kg, po administered once every other day for 28 days and measured every 2 days; assay type: organism-based; settings: in vivo, 672 h, dose 0.3-3 mg/kg, time 28 day
[11] = Sub-acute toxicity in Kunming mouse assessed as change ASTL level at 100 to 300 mg/kg administered via gavage for 14 days; assay type: organism-based; settings: in vivo, po, 336 h, dose 100-300 mg/kg, time 14 day
[12] = Clearance in male Balb/c mouse at 1 mg/kg, po measured upto 96 hrs by LC-MS/MS analysis; assay type: ADME, organism-based; settings: in vivo, po, 1 mg/kg, 96 h
MDA-MB-436 [13] = experiment: Induction of cell cycle arrest in human MDA-MB-436 cells assessed as accumulation of cells at G0/G1 phase at 10 nM incubated for 3 days by PI staining based flow cytometric analysis (Rvb =56.18%); assay type: functional; settings: time 3 day
DLD-1 [14] = experiment: Inhibition of colony formation in BRCA2 knockout human DLD-1 cells assessed as reduction in survival rate incubated for 10 days by crystal violet staining based assay; assay type: functional, cell-based; settings: dose 0.1-100 nM, time 10.0 day
MDA-MB-436 [15] = experiment: Antitumor activity against human MDA-MB-436 cells xenografted in female NOD/SCID mouse assessed as tumor regression rate at 1 mg/kg, po administered once every other day for 28 days relative to control; assay type: functional; settings: time 28 day
[16] = Half life in rat at 2.5 mg/kg, po measured upto 96 hrs by LC-MS/MS analysis; assay type: ADME, organism-based; settings: in vivo
[17] = Acute toxicity in Kunming mouse assessed as mortality at 30 to 100 mg/kg administered via gavage once every other day for 14 days; assay type: organism-based; settings: in vivo, po, 336 h, dose 30-100 mg/kg, time 14 day
[18] = AUC(0 to t) in rat at 2.5 mg/kg, po measured upto 96 hrs by LC-MS/MS analysis; assay type: ADME, organism-based; settings: in vivo
[19] = Tmax in rat at 2.5 mg/kg, iv measured upto 96 hrs by LC-MS/MS analysis; assay type: ADME, organism-based; settings: in vivo
MDA-MB-436 [20] = experiment: Induction of apoptosis in human MDA-MB-436 cells assessed as early apoptotic cells at 1 nM incubated for 3 days by Annexin V/ PI staining based flow cytometry (reference value: 12.8%); assay type: functional; settings: time 3 day
MDA-MB-436 [21] = experiment: Induction of apoptosis in human MDA-MB-436 cells assessed as early apoptotic cells at 100 nM incubated for 3 days by Annexin V/ PI staining based flow cytometry (reference value: 12.8%); assay type: functional; settings: time 3 day
[22] = Acute toxicity in Kunming mouse assessed as change in cellular morphology of liver at 100 mg/kg administered once every other day via gavage for 14 days by H and E staining based analysis; assay type: organism-based; settings: in vivo, po, 336 h, time 14 day
[23] = Acute toxicity in Kunming mouse assessed as change in liver structure at 300 mg/kg administered via gavage for 14 days by H and E staining based analysis; assay type: organism-based; settings: in vivo, po, 336 h, time 14 day
[24] = biological target: T1, Poly [ADP-ribose] polymerase 1 (Homo sapiens, UniProt P09874); experiment: Binding affinity to PARP1 (unknown origin) assessed as DNA trapping activity incubated for 1 hr by Envision 2105 plate reader analysis
[25] = Cmax in male Balb/c mouse at 1 mg/kg, po measured upto 96 hrs by LC-MS/MS analysis; assay type: ADME, organism-based; settings: in vivo
[26] = Clearance in rat at 2.5 mg/kg, iv measured upto 96 hrs by LC-MS/MS analysis; assay type: ADME, organism-based; settings: in vivo
MDA-MB-436 [27] = experiment: Induction of apoptosis in human MDA-MB-436 cells assessed as early apoptotic cells at 10 nM incubated for 3 days by Annexin V/ PI staining based flow cytometry (reference value: 12.8%); assay type: functional; settings: time 3 day
MDA-MB-436 [28] = experiment: Antitumor activity against human MDA-MB-436 cells xenografted in female NOD/SCID mouse assessed as tumor growth inhibition at 0.3 mg/kg, po administered once every other day for 28 days relative to control; assay type: functional; parameters: scale not given: the % may be the effect or the level left; settings: time 28 day
[29] = Acute toxicity in Kunming mouse assessed as change in cellular morphology of heart at 100 mg/kg administered once every other day via gavage for 14 days by H and E staining based analysis; assay type: organism-based; settings: in vivo, po, 336 h, time 14 day
DLD-1 [30] = experiment: Inhibition of colony formation in wild type human DLD-1 cells assessed as reduction in survival rate at 2.5 to 20 uM incubated for 10 days by crystal violet staining based assay; assay type: functional, cell-based; settings: dose 2.5-20 µM, time 10.0 day
[31] = Apparent volume of distribution in male Balb/c mouse at 1 mg/kg, po measured upto 96 hrs by LC-MS/MS analysis; assay type: ADME, organism-based; settings: in vivo
MDA-MB-436 [32] = experiment: Antitumor activity against luciferase tagged human MDA-MB-436 cells xenografted in female NOD-SCID mouse assessed as median survival time at 10 mg/kg, po administered once a day for 34 days; assay type: functional; settings: time 34 day
MDA-MB-436 [33] = experiment: Antitumor activity against luciferase tagged human MDA-MB-436 cells xenografted in female NOD-SCID mouse assessed as tumor regression by measuring bioluminescence signal administered orally once a day for 34 days by bioluminescence imaging analysis; assay type: functional, cell-based; settings: dose 3-10 mg/kg, route po, time 34.0 day
[34] = AUC(0 to t) in rat at 2.5 mg/kg, iv measured upto 96 hrs by LC-MS/MS analysis; assay type: ADME, organism-based; settings: in vivo
[35] = biological target: T1, Poly [ADP-ribose] polymerase 1; experiment: Inhibition of PARP1 in wild type human A549 cells preincubated with compound for 1 hr followed by H2O2 addition and measured after 5 mins by PARylation inhibition assay; assay type: cell-based
[36] = Toxicity in female NOD/SCID mouse xenografted with human MDA-MB-436 cells assessed as histological changes in spleen at 3 mg/kg, po administered once every other day for 28 days by H and E staining based analysis; assay type: organism-based; settings: in vivo, 672 h, time 28 day

T1 sequence (P09874 whole entry): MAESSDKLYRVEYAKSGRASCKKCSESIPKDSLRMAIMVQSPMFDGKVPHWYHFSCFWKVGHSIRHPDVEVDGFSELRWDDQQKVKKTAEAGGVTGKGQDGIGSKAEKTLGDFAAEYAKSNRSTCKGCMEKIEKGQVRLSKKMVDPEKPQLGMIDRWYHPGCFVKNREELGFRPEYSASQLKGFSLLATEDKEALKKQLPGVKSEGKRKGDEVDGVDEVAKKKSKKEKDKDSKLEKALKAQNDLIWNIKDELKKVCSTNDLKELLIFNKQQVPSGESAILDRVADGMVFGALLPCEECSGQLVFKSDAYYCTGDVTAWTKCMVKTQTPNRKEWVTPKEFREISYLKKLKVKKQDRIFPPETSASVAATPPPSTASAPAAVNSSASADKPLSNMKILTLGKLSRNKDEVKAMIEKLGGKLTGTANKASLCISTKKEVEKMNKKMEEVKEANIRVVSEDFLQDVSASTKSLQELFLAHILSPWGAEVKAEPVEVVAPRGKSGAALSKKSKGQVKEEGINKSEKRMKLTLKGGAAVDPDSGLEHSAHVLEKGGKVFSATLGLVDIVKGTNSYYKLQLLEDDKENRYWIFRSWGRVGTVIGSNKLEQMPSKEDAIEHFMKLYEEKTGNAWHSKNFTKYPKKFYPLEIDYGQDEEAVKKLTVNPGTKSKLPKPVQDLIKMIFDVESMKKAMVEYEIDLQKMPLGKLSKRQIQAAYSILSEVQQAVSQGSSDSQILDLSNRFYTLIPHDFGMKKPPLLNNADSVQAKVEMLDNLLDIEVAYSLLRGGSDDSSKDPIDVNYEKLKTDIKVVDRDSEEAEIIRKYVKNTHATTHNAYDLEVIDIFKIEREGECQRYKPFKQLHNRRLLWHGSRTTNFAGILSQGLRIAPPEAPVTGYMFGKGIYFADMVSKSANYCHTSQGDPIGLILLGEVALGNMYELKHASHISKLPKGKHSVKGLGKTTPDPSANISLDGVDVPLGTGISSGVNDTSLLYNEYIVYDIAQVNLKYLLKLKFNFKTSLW
Poly [ADP-ribose] polymerase 2, sequence (Q9UGN5 whole entry): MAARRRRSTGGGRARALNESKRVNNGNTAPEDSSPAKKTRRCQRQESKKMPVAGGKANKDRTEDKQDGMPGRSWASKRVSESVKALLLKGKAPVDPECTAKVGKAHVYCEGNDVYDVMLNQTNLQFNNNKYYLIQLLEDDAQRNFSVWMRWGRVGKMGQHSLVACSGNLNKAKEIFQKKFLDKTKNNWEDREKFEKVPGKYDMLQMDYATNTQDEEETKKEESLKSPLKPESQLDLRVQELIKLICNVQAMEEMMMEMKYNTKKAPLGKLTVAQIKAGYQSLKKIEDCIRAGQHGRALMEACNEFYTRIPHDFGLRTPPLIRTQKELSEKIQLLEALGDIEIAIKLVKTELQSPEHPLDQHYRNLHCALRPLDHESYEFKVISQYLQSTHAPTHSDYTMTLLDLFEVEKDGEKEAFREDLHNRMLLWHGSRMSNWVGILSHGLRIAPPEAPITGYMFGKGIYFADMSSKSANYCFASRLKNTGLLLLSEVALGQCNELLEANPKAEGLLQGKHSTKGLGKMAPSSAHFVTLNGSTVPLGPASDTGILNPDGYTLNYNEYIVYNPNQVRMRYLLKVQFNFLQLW

CCc1cc2ncc(CN3CC=C(c4ccc(C#N)cn4)CC3)cc2[nH]c1=O
Activity (MDA-MB-436 [1]): Active | t1/2 [2]: 76.07 h | AUCt [3]: 787.38372 µg·h/mL | Activity [4]: Non-toxic | Vz [5]: 0.33 L/kg | Activity [6]: Non-toxic | Cmax [7]: 10700 ng/mL | Vd [8]: 0.21 L/kg | EC50 [9]: 4.33 µM | Activity [10]: Non-toxic | Activity [11]: Non-toxic | CL [12]: 0.01 L/h/kg | Activity (MDA-MB-436 [13]): 60.25% | inhibition (DLD-1 [14]): Dose-dependent-effect | Activity (MDA-MB-436 [15]): 59.4% | half-life [16]: 2840 min | Activity [17]: Non-toxic | AUC(0-t) at 96 h [18]: 520 µg·h/mL | Tmax [19]: 4.8 min | Activity (MDA-MB-436 [20]): 17% | Activity (MDA-MB-436 [21]): 21.9% | Activity [22]: Non-toxic | Activity [23]: Non-toxic | EC50 [24]: 0.9 nM | Cmax [25]: 6630 ng/mL | clearance [26]: 0.167 mL/min/kg | Activity (MDA-MB-436 [27]): 20.3% | Activity (MDA-MB-436 [28]): 89.9% | Activity [29]: Non-toxic | inhibition (DLD-1 [30]): inactive | Vz [31]: 0.13 L/kg | Survival (MDA-MB-436 [32]): 70 days | Activity (MDA-MB-436 [33]): Dose-dependent-effect | AUC(0-t) at 96 h [34]: 510 µg·h/mL | IC50 [35]: 4.1 nM | Activity [36]: Non-toxic
